Results reported in patent US20090035876A1, “Electrochemical Assay” (Inverness Medical Switzerland GMBH, priority 2005, published 2009).

Columns and labels:
[1] = molecular target: human serum albumin (HSA) (Homo sapiens, UniProt P02768); settings: probe 25 μM, HSA 500 μM, cyclic voltammetry
Description: Cyclic voltammetry was used to measure the concentration of the ferrocene labelled fatty acid probe with and without the presence of HSA allowing percentage bound to be calculated.

[2] = Photolysis of the UV-cleavable ferrocene molecule in solution, followed by TLC; format: physicochemical; settings: UV 365 nm, methanolic/PBS solution, 2.18 mM
Protocol: The cleavage study was followed by Thin Layer Chromatography (TLC) after irradiation for a definite time of a methanolic/PBS solution of the UV-cleavable ferrocene 9 (FIG. 3). • After 2 minutes of irradiation, the appearance of two new products was observed; One of them corresponding to the ferrocene product 8 (on the base line), the other one corresponding probably to the nitroso-derivative 10 just under the front line). • Under the irradiation conditions used, the Uv-cleavable ferrocene molecule was completely cleaved in less than 6 minutes.
To a solution of UV-cleavable ferrocene 9 (0.7 mg, 1.09*10^−6 mol) dissolved in 250 μl of methanol was added 250 μl of PBS. 30 μl of this solution was irradiated using a UV model B100A with a wavelength of 365 nm and an intensity of 8,900 μW/cm^2 at 10″. The UV was applied at approximately 15 cm from the solution.
The cleavage was followed by TLC every two minutes. Eluent used: Ethyl acetate/hexane (80/20) and DCM/MeOH/Et3N (85/10/5).

Chain of human serum albumin (HSA) (P02768 25-609): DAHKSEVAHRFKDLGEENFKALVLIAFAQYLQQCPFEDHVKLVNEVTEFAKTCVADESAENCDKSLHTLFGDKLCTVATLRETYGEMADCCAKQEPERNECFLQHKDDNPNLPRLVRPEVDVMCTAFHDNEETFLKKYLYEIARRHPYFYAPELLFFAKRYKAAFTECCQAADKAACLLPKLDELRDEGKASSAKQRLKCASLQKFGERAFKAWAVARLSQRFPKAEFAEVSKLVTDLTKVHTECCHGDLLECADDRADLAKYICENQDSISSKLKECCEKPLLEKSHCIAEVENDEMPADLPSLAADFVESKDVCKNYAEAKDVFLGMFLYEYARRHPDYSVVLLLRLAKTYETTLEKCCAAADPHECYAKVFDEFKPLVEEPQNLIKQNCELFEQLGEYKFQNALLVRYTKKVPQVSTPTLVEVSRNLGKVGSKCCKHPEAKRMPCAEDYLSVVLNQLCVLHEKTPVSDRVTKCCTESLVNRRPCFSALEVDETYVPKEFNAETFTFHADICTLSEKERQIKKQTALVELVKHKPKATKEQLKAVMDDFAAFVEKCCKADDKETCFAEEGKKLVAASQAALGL

Compound	percentage bound to HSA [1] [%]	irradiation time until completely cleaved [2]
OC[c-]1cccc1.[Fe+2].c1cc[cH-]c1 [ferrocene methanol]	50	–
Thioacetic acid S—[3-(1-{2-[2-(2-ferrocenoylamino-ethoxy)-ethoxy]-ethylcarbamoyloxy}-ethyl)-4-nitro-benzyl]ester [UV-cleavable ferrocene molecule 9]	–	less than 6 minutes
